Measurements reported in patent US10888542B2 (SK BIOPHARMACEUTICALS CO., LTD., priority 2014, dated 2021).

Columns and labels:
dopamine transporter = biological target: T1, dopamine transporter (Rattus norvegicus, UniProt P23977); assay: Dopamine transporter binding assay ([3H]GBR12935, rat striatal membranes); conditions: 10 μM test compound, radioligand [3H]GBR12935 1.0 nM, 25° C., 45 minutes
T1 construct: The receptor source was rat striatal membranes; from tissue; host or cells: striatum of male SD rats (Orient Korea), membrane preparation
T1 sequence (P23977 whole entry): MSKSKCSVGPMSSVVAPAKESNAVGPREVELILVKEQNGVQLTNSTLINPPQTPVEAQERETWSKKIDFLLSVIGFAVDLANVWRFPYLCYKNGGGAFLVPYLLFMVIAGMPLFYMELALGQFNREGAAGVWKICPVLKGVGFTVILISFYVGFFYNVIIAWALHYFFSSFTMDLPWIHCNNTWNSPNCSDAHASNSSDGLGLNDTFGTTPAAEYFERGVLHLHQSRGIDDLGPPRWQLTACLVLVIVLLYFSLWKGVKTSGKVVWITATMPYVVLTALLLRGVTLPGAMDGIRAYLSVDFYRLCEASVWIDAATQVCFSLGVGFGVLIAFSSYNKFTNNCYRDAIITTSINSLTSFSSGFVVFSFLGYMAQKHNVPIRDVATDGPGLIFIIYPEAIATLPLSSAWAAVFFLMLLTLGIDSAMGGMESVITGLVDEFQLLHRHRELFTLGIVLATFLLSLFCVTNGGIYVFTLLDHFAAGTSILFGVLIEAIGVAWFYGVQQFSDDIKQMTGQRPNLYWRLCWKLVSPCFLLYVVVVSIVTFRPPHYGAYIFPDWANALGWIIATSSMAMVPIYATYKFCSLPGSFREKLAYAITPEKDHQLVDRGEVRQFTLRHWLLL
Experimental: Rats (SD-rat, Orient Korea, male, 200-250 g) were sacrificed by decapitation. The striata were removed immediately and then stored at −80° C. until used. On the day of the manipulation, the striata were thawed and suspended in 20 volumes of buffer containing 50 mM Tris-HCl and 120 mM NaCl (pH 7.7). The suspension then was centrifuged at 17,700 rpm for 20 minutes. The pellet was resuspended in 20 volumes of the buffer and centrifuged at 17,700 rpm for 20 minutes. This procedure was repeated once more. The pellet obtained was resuspended in a few ml of the buffer and then homogenized. The concentration of the receptor source was determined by Lowry et al., 1951, J. Biol. Chem. 193:265-275.
Dopamine Transporter Assay Protocol
The dopamine reuptake transporter binding assay was performed according to the methods described in Madras et al., 1989, Mol. Pharmacol. 36(4):518-524, and Javitch et al., 1984, Mol. Pharmacol. 26(1):35-44. The receptor source was rat striatal membranes; the radioligand was GBR12935 [prolyene-2,3-^3H] […]

mice = assay: Locomotor activity test (LMA); type: in vivo; conditions: ip, LMA measured 30 minutes after dosing, counts for 10 minutes, percent change from control
From the text: Psychostimulant activity was examined through the locomotor activity test (LMA). The LMA is a behavioral test developed to predict the efficacy of psychostimulants. The LMA is an attractive test for psychostimulants because it is sensitive and specific. All of the major classes of psychostimulants enhance ambulatory activities in the LMA, including methylphenidate, amphetamine, and many other psychostimulants.
Sixteen (16) mice (3 weeks CrjBgi:CD-1 (ICR) and 8 weeks C57BL/6) were purchased from Orient Bio Inc. (Gyeonggi-do, Korea). The mice were divided into a control group and a drug-treated group (eight (8) mice per group) by a block randomization method. Each of the group was placed in an empty cage and bred under environmental conditions of 19-25° C. with a relative humidity of 40-60% and a lighting cycle of 12 hr light/12 hr dark. Diet and water were supplied ad libitum. After one week of acclimation, the LMA test was carried out. The mice were habituated for over 1 hour in an LMA room before starting the LMA test. After habituation, the test compounds (10 or 30 mg/kg) were administered to the drug-treated group by intraperitoneal injection. At 30 minutes after i.p. dosing, LMA was measured using automated photobeams, Opto-Varimax® (Columbus Instruments, Ohio, US) and recorded on a computer. The total locomoter counts for each mouse were recorded for 10 minutes.
Statistical mean values for control and drug-treated groups were calculated and the percent changes from control were determined.

SMILES	inhibition at 10 µM (dopamine transporter)	% ambulation (mice; 30 mg/kg)	% ambulation (mice; 10 mg/kg)
Cl.NC(=O)NC(=O)OC[C@H](N)Cc1ccccc1 [Example 2, (2R)-2-Amino-3-phenylpropyl (aminocarbonyl)carbamate]	50.1%	118.7% (30 mg/kg, ip)	
CC(C)N[C@@H](COC(=O)NC(N)=O)Cc1ccccc1.Cl [Example 3, (2R)-2-(Isopropylamino)-3-phenylpropyl (aminocarbonyl)carbamate]	40.1%	291.5% (30 mg/kg, ip)	
CN(C)[C@@H](COC(=O)NC(N)=O)Cc1ccccc1.Cl [Example 4, (2R)-2-(Dimethylamino)-3-phenylpropyl (aminocarbonyl)carbamate]	38.4%	242.6% (30 mg/kg, ip)	
NC(=O)NC(=O)OC[C@H](N)Cc1ccc(Cl)cc1Cl [Example 6, (2R)-2-Amino-3-(2,4-dichlorophenyl)propyl (aminocarbonyl)carbamate]	20.4%		
NC(=O)NC(=O)OC[C@H](N)Cc1ccc(Cl)c(Cl)c1 [Example 7, (2R)-2-Amino-3-(3,4-dichlorophenyl)propyl (aminocarbonyl)carbamate]	41.2%		
CN(C(N)=O)C(=O)OC[C@H](N)Cc1ccccc1 [Example 8]	20.3%	186.4% (30 mg/kg, ip)	
NC(=O)NC(=O)OCC(N)Cc1ccc(Cl)cc1 (stereo not shown) [Example 9]	42.8%		
CN[C@@H](COC(=O)NC(N)=O)Cc1ccccc1 [Example 14]	35.9%		
CN(C(N)=O)C(=O)OC[C@@H](Cc1ccccc1)N(C)C [Example 15]	55.5%		202.2% (10 mg/kg, ip)
NC(=O)N(Cc1ccccc1)C(=O)OC[C@H](N)Cc1ccccc1 [Example 16, (2R)-2-Amino-3-phenylpropyl (aminocarbonyl)benzylcarbamate]	20.8%		
CCN(C(N)=O)C(=O)OC[C@H](N)Cc1ccccc1 [Example 17, (2R)-2-Amino-3-phenylpropyl(aminocarbonyl)ethylcarbamate]	41.2%		
CN(C(N)=O)C(=O)OC[C@H](N)Cc1ccccc1Cl [Example 18]	17.5%		
CN(C(N)=O)C(=O)OC[C@H](N)Cc1ccc(F)cc1 [Example 19, 2-Amino-3-(4-fluorophenyl)propyl(aminocarbonyl)methylcarbamate]	34.3%		
CN(C(N)=O)C(=O)OC[C@H](N)Cc1ccc(Cl)cc1Cl [Example 21, (2R)-2-amino-3-(2,4-dichlorophenyl)propyl (aminocarbonyl) Methylcarbamate]	31.5%		
CN(C(N)=O)C(=O)OC[C@H](N)Cc1ccc(Cl)c(Cl)c1 [Example 22, (2R)-2-Amino-3-(3,4-dichlorophenyl)propyl (aminocarbonyl) Methylcarbamate]	37%		
CN(C(N)=O)C(=O)OCC(N)Cc1ccccc1 (stereo not shown) [Example 24]	45%		
N[C@@H](COC(=O)NC(=O)Nc1ccccc1)Cc1ccccc1 [Example 29, (2R)-2-Amino-3-phenylpropyl (anilinocarbonyl)carbamate]	50.7%		
